Where “and” joins values, the source holds several entries; their conditions need not be identical. Identical values can stand only once.
How the values were obtained:
Type in all cases: in vivo, Sprague-Dawley rats
[1] = tested on: Principal Bile Acids in Jejunum; test: Bile acid composition of jejunum after oral administration (GC-MS); details: for UDCA mass in jejunum / Chenodeoxycholic acid mass in jejunum / Cholic acid mass in jejunum / Cholic acid percent of jejunal bile acids / Deoxycholic acid mass in jejunum / Deoxycholic acid percent of jejunal bile acids / Lithocholic acid mass in jejunum / Lithocholic acid percent of jejunal bile acids / Total bile acid mass in jejunum / UDCA percent of jejunal bile acids / Δ^22-UDCA mass in jejunum / Δ^22-UDCA percent of jejunal bile acids / Δ^22-β-Muricholic acid mass in jejunum / Δ^22-ω-Muricholic acid mass in jejunum / α-Muricholic acid mass in jejunum / β-Muricholic acid mass in jejunum / ω-Muricholic acid mass in jejunum: oral gavage 250 mg/day, 4 days, mean ± SEM; for UDCA mass in jejunum: 24 hours after final dose; for Conjugation pattern of UDCA in jejunum: anion-exchange chromatography
Description: (§1) Male Sprague-Dawley rats (Harlan Sprague-Dawley, Inc., Indianapolis, Ind.), weighing 210-290 g, were maintained on a 12-hour light-dark cycle and fed standard laboratory chow ad libitum for 3 days. The animals were then transferred to metabolic cages in which they were housed individually and fed the same diet. UDCA, UDCA 3-sulfate, UDCA 7-sulfate, and UDCA 3,7-disulfate were administered by gavage at a dose of 250 mg/day for 4 consecutive days. Each group comprised 3-6 rats. Body weights of the animals were measured each day. On day 5, the animals were killed by exsanguination under ether anesthesia. Plasma was collected and frozen at -20° C. The liver was removed, rinsed in normal saline, and flash-frozen in liquid nitrogen. Urine and feces were collected every 24 hours and frozen at -20° C. All animals received humane care in compliance with the "Guide for the Care and Use of Laboratory Animals" prepared by the National Academy of Sciences (National Institutes of Health publication no. 86-23, revised in 1985).
(§2) Intestinal contents were weighed and dissected into small pieces. In each group, feces (100 mg) from all animals were pooled on day 4 of the study and then ground into a fine paste. All samples were sonicated and sequentially refluxed in 80% methanol for 2 hours and chloroform/methanol (1:1) for 1 hour. Samples were taken to dryness, and the dried extracts were resuspended in 80% methanol (20 mL). Fractions of the methanolic extract (1/40 of intestinal contents and 1/20 of feces samples) were removed and the internal standard nordeoxycholic acid (10 μg) was added. This extract was diluted with 0.01 mol/L acetic acid (20 mL) and passed first through a column of Lipidex 1000 (bed size, 4×1 cm; Packard Instrument Co., Groningen, The Netherlands) and then through a Bond-Elut C18, cartridge (Analytichem, Harbor City, Calif.). Bile acids were recovered by elution of the Lipidex 1000 column and the Bond-Elut cartridge with methanol (20 mL and 5 mL, respectively), and the combined extracts were taken to dryness. Unconjugated bile acids were isolated and separated from neutral sterol and conjugated bile acids by lipophilic anion exchange chromatography on diethylaminohydroxypropyl Sephadex LH-20 (Lipidex-DEAP; Package Instrument Co.). Recovery of unconjugated bile acids was achieved by elution with 0.1 mol/L acetic acid in 72% ethanol (7 mL) followed by evaporation of the solvents. Total conjugated bile acids were recovered with 9 mL of 0.3 mol/L acetic acid in 72% ethanol, pH 9.6. Salts were removed by passage through a Bond-Elut C18 cartridge after addition of nordeoxycholic acid (10 μg), and conjugated bile acids were recovered by elution with 5 mL of methanol. Solvolysis was performed in a mixture of methanol (1 mL), distilled tetrahydrofuran (9 mL), and 1 mol/L trifluoracetic acid in dioxane (0.1 mL) and heated to 45° C for 2 hours. After solvolysis, unconjugated bile acids were isolated by chromatography on Lipidex-DEAP. Methyl ester derivatives were prepared by dissolving the sample in methanol (0.3 mL) and reacting with 2.7 mL of freshly distilled ethereal diazomethane. After evaporation of the reagents, the methyl ester derivatives were converted to trimethylsilyl ethers by the addition of […] of Tri-Sil reagent (Pierce Chemicals, Rockford, Ill.). A column of Lipidex 5000 (Packard Instrument Co.) was used to remove derivatizing reagents and to purify the sample.
Samples of liver (100 mg) were ground to a fine paste, and bile acids were extracted by reflux and passage through a column of Lipidex 1000 as described above for intestinal contents and feces. Group separation of bile acids, according to their mode of conjugation was achieved by lipophilic anion-exchange chromatography. […]

[2] = tested on: Principal Bile Acids in Colon; test: Bile acid composition of colon after oral administration (GC-MS); details: for Chenodeoxycholic acid mass in colon / Cholic acid mass in colon / Cholic acid percent of colonic bile acids / Deoxycholic acid mass in colon / Deoxycholic acid percent of colonic bile acids / Lithocholic acid mass in colon / Lithocholic acid percent of colonic bile acids / Total bile acid mass in colon / UDCA mass in colon / UDCA percent of colonic bile acids / Δ^22-UDCA mass in colon / Δ^22-UDCA percent of colonic bile acids / Δ^22-β-Muricholic acid mass in colon / Δ^22-ω-Muricholic acid mass in colon / α-Muricholic acid mass in colon / β-Muricholic acid mass in colon / ω-Muricholic acid mass in colon: oral gavage 250 mg/day, 4 days, mean ± SEM; for Change in colonic deoxycholic / lithocholic acid (in words): oral, vs control
Description: as §1, §2
GC-MS analysis was performed using a Finnigan 4635 mass spectrometer (Finnigan Inc., San Jose, Calif.) that housed an identical gas chromatography column operated under the same conditions. Electron ionization (70 eV) mass spectra were recorded over the mass range of 50-800 daltons by repetitive scanning of the eluting components. […]

[3] = Urinary excretion of UDCA after oral administration
Description: as §1
In each group, urine from all animals was pooled on the individual days of collection. Day 1 represented the baseline sample, and samples from days 2, 3 and 4 were obtained during bile acid administration. After the addition of nordeoxycholic acid (1 μg), bile acids were quantitatively extracted from portions of urine (3 mL) and plasma (1 mL) using Bond-Elut C18 cartridges. After liquid-solid extraction, isolation and separation of unconjugated and conjugated bile acids were achieved by lipophilic anion-exchange chromatography on Lipidex-DEAP. Solvolysis of bile acid conjugates and isolation of the hydrolyzed products were performed as described above, and bile acids were converted to volatile methyl ester-trimethylsilyl ether derivatives.
GC-MS analysis was performed using a Finnigan 4635 mass spectrometer (Finnigan Inc., San Jose, Calif.) that housed an identical gas chromatography column operated under the same conditions. Electron ionization (70 eV) mass spectra were recorded over the mass range of 50-800 daltons by repetitive scanning of the eluting components. Identification of bile acids was made on the basis of the gas chromatography retention index relative to a homologous series of n-alkanes, referred to as the methylene unit value, and the mass spectrum compared with authentic standards. Quantification of bile acids was achieved using gas chromatography by comparing the peak height response of the individual bile acids with the peak height response obtained from the internal standard.
Liquid secondary ionization mass spectrometry negative ion spectra of urine samples were obtained after placing approximately 1 μL of the methanolic extract onto a small drop of a glycerol/methanol matrix spotted on a stainless steel probe. This probe was introduced into the ion source of a VG Autospec Q mass spectrometer, and a beam of fast atoms of cesium, generated from cesium iodine (35 KeV), was fired at the target containing the sample. Negative ion spectra were obtained over the mass range of 50-1000 daltons.
Data are expressed as mean±SEM or as mean values of all animals when extracts were pooled before analysis. Results from different groups were compared using paired and unpaired two-tailed Student's t-test. P values of <0.05 were considered statistically significant.

| SMILES | Chenodeoxycholic acid mass in jejunum [1] [mg] | Cholic acid mass in jejunum [1] | Cholic acid percent of jejunal bile acids [1] [%] | Deoxycholic acid mass in jejunum [1] [mg] | Deoxycholic acid percent of jejunal bile acids [1] [%] | Lithocholic acid mass in jejunum [1] [mg] | Lithocholic acid percent of jejunal bile acids [1] [%] | Total bile acid mass in jejunum [1] [mg] | UDCA percent of jejunal bile acids [1] [%] | Δ^22-UDCA mass in jejunum [1] [mg] | Δ^22-UDCA percent of jejunal bile acids [1] [%] | Δ^22-β-Muricholic acid mass in jejunum [1] [mg] | Δ^22-ω-Muricholic acid mass in jejunum [1] [mg] | α-Muricholic acid mass in jejunum [1] [mg] | β-Muricholic acid mass in jejunum [1] [mg] | ω-Muricholic acid mass in jejunum [1] [mg] | Chenodeoxycholic acid mass in colon [2] [mg] | Cholic acid mass in colon [2] [mg] | Cholic acid percent of colonic bile acids [2] [%] | Deoxycholic acid mass in colon [2] | other results |
| --- | --- | --- | --- | --- | --- | --- | --- | --- | --- | --- | --- | --- | --- | --- | --- | --- | --- | --- | --- | --- | --- |
| C[C@H](CCC(=O)O)[C@H]1CC[C@H]2[C@@H]3[C@@H](O)C[C@@H]4C[C@H](OS(=O)(=O)O)CC[C@]4(C)[C@H]3CC[C@]12C [UDCA-3S, ursodeoxycholic acid 3-sulfate] | 0.43 | 8.49 mg | 37.7 | 1.96 | 8.4 | 0.07 | 0.3 | 22.57 | 16.4 | 2.04 | 9.2 | 2.09 | 0.24 | 0.18 | 3.02 | 0.37 | 0.06 | 0.44 | 13.8 | .58 mg | Δ^22 UDCA in jejunum (in words) ([1]; oral): detected in large proportions and amounts; UDCA mass in jejunum ([1]; listed as UDCA 3-SULFATE): 3.67 mg; UDCA mass in jejunum ([1]; listed as UDCA 3-sulfate): 3.67 ± 0.45 mg; Change in proportion of cholic acid in jejunum (in words) ([1]; oral, vs control): decrease (P=0.05) in the proportion of cholic acid but to a lesser extent than UDCA; Conjugation pattern of UDCA in jejunum ([1]; oral): substantial proportions of amidated UDCA; Deoxycholic acid percent of colonic bile acids [2]: 17.4%; Lithocholic acid mass in colon [2]: 0.61 mg; Lithocholic acid percent of colonic bile acids [2]: 18.4%; Total bile acid mass in colon [2]: 4.07 mg; UDCA mass in colon [2]: 0.05 mg; UDCA percent of colonic bile acids [2]: 1.5 ± 0.2%; Δ^22-UDCA mass in colon [2]: 0.01 mg; Δ^22-UDCA percent of colonic bile acids [2]: 0.2 ± 0.1%; Δ^22-β-Muricholic acid mass in colon [2]: 0.01 mg; Δ^22-ω-Muricholic acid mass in colon [2]: 0.44 mg; α-Muricholic acid mass in colon [2]: 0.02 mg; β-Muricholic acid mass in colon [2]: 0.20 mg; ω-Muricholic acid mass in colon [2]: 1.67 mg; Urinary excretion of sulfate conjugates of UDCA [3]: 2.7 nmol/day; Urinary unconjugated UDCA excretion [3]: 5.2 nmol/day |
| C[C@H](CCC(=O)O)[C@H]1CC[C@H]2[C@@H]3[C@@H](OS(=O)(=O)O)C[C@@H]4C[C@H](O)CC[C@]4(C)[C@H]3CC[C@]12C [UDCA-7S, ursodeoxycholic acid 7-sulfate] | 0.26 | 15.78 mg | 69.0 | 0.76 | 3.3 | 0.01 | 0.1 | 22.91 | 4.7 | 0.70 | 3.1 | 1.49 | 0.26 | 0.04 | 2.21 | 0.31 | 0.06 | 0.09 | 2.5 | 0.36 mg | UDCA mass in jejunum ([1]; listed as UDCA 7-SULFATE): 1.09 mg; UDCA mass in jejunum ([1]; listed as UDCA 7-sulfate): 1.09 ± 0.34 mg; Deoxycholic acid percent of colonic bile acids [2]: 11.4%; Lithocholic acid mass in colon [2]: 0.04 mg; Lithocholic acid percent of colonic bile acids [2]: 1.3%; Total bile acid mass in colon [2]: 2.98 mg; UDCA mass in colon [2]: 1.28 mg; UDCA percent of colonic bile acids [2]: 44.0%; Δ^22-UDCA percent of colonic bile acids [2]: 0%; Δ^22-β-Muricholic acid mass in colon [2]: 0.03 mg; Δ^22-ω-Muricholic acid mass in colon [2]: 0.15 mg; α-Muricholic acid mass in colon [2]: 0.03 mg; β-Muricholic acid mass in colon [2]: 0.06 mg; ω-Muricholic acid mass in colon [2]: 0.88 mg; Change in colonic deoxycholic / lithocholic acid (in words) [2]: substantial reductions in the mass and proportion of both deoxycholic acid and lithocholic acid; Urinary excretion of sulfate conjugates of UDCA [3]: 317.8 nmol/day; Urinary unconjugated UDCA excretion [3]: 1.8 nmol/day |
| C[C@H](CCC(=O)O)[C@H]1CC[C@H]2[C@@H]3[C@@H](O)C[C@@H]4C[C@H](O)CC[C@]4(C)[C@H]3CC[C@]12C [UDCA, 3 alpha, 7 beta-dihydroxy-5 beta-cholan-24oic acid, reference compound] | 0.98 | 4.68 mg and 4.68 ± 0.65 mg | 16.8 | 1.56 | 5.6 | 0.26 | 1.0 | 27.77 | 35.9 | 4.00 | 14.5 | 0.85 | 0.30 | 0.75 | 4.12 | 0.31 | 0.05 | 0.24 | 8.9 | 0.31 mg | Δ^22 UDCA in jejunum (in words) ([1]; oral): detected in large proportions and amounts; UDCA mass in jejunum [1]: 9.95 mg and 9.95 ± 0.49 mg; Conjugation pattern of UDCA in jejunum ([1]; oral): predominantly glyco- and tauro-UDCA, smaller amounts of unconjugated UDCA, and negligible amounts of sulfated UDCA; Deoxycholic acid percent of colonic bile acids [2]: 10.4%; Lithocholic acid mass in colon [2]: 0.97 mg; Lithocholic acid percent of colonic bile acids [2]: 32.0%; Total bile acid mass in colon [2]: 3.04 mg; UDCA mass in colon [2]: 0.31 mg; UDCA percent of colonic bile acids [2]: 8.3%; Δ^22-UDCA mass in colon [2]: 0.02 mg; Δ^22-UDCA percent of colonic bile acids [2]: 0.4%; Δ^22-ω-Muricholic acid mass in colon [2]: 0.19 mg; α-Muricholic acid mass in colon [2]: 0.01 mg; β-Muricholic acid mass in colon [2]: 0.13 mg; ω-Muricholic acid mass in colon [2]: 0.83 mg; Change in colonic deoxycholic / lithocholic acid (in words) [2]: decrease (P=0.003) in the proportion of deoxycholic acid; Urinary excretion of sulfate conjugates of UDCA [3]: 4.6 nmol/day; Urinary unconjugated UDCA excretion [3]: 642.7 nmol/day |

Source: patent US5763435A, “Sulfate conjugates of ursodeoxycholic acid, and their beneficial use in inflammatory disorders” (priority 1995, dated 1998)
